Test results from ChEMBL document CHEMBL3822435, “Synthesis, antiproliferative and pro-apoptotic activity of 2-phenylindoles” (Bioorg Med Chem, 2016).
Calls of active or inactive are those of the source. The rule behind the calls is not given here.

Assays:
MCF7 [1] = assay: cells; conditions: Homo sapiens, MCF7, 72 h
Description: Antiproliferative activity against ER-positive human MCF7 cells assessed as reduction in cell viability measured after 72 hrs by AlamarBlue assay

MCF7 [2] = assay: Induction of apoptosis in human MCF7 cells assessed as apoptotic cells at 10 uM measured after 72 hrs by propidium iodide staining-based flow cytometric analysis (reference value: 5.5 +/- 1.3%); assay type: functional
MCF7 [3] = assay: Induction of apoptosis in human MCF7 cells assessed as accumulation at G2/M-phase at 10 uM measured after 72 hrs by propidium iodide staining-based flow cytometric analysis; assay type: functional, cell-based
PBMC [4] = assay: Induction of apoptosis in human PBMCs assessed as apoptotic cells at 10 uM measured after 72 hrs by propidium iodide staining-based flow cytometric analysis (reference value: 1.5 +/- 0.6%); assay type: cell-based
PBMC [5] = assay: Induction of apoptosis in human PBMCs assessed as accumulation at G2/M-phase at 10 uM measured after 72 hrs by propidium iodide staining-based flow cytometric analysis; assay type: cell-based
Estrogen receptor = molecular target: T1, Estrogen receptor (Homo sapiens, UniProt P03372)
T1 sequence (P03372 whole entry): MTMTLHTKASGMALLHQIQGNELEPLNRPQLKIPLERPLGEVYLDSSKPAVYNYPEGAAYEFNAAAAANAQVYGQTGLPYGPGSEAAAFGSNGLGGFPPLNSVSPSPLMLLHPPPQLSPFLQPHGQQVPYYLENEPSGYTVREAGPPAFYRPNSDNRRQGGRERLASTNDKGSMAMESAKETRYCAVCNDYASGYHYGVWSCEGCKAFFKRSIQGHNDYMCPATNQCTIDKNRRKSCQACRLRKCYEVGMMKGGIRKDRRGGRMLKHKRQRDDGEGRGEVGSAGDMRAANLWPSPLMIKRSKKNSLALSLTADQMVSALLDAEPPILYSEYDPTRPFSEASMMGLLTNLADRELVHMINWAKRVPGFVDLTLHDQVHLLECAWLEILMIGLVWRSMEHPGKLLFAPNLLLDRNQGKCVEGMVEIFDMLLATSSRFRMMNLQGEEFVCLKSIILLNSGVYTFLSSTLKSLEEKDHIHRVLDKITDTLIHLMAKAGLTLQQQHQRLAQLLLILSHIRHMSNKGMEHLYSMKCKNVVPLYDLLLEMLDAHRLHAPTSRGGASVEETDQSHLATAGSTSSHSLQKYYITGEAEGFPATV
Description: Inhibition of ER-alpha (unknown origin) by Lanthascreen-FRET assay

Estrogen receptor beta = Estrogen receptor beta (Homo sapiens, UniProt Q92731)
Estrogen receptor beta, sequence (Q92731 whole entry): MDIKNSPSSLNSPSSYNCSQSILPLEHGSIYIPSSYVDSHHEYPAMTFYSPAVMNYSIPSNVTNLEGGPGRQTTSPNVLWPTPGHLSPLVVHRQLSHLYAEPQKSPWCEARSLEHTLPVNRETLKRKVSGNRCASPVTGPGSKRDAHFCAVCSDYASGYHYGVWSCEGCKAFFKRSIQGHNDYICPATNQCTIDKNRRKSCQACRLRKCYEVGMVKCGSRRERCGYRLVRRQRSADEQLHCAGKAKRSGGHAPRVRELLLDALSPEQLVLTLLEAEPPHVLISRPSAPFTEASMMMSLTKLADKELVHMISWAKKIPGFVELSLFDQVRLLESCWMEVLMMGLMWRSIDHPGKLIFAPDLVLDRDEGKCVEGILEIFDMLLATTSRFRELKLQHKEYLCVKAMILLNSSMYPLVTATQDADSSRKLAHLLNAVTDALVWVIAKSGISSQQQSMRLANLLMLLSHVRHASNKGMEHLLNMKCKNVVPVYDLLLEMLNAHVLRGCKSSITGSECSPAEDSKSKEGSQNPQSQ
Description: Inhibition of ER-beta (unknown origin) by Lanthascreen-FRET assay

## CNCCCCCCCCn1c(-c2ccc(O)cc2)c(C)c2cc(O)ccc21
MCF7 [1]
  IC50: 38.9 µM

## Cc1c(-c2ccc(O)cc2)n(CCCCCn2c(-c3ccc(O)cc3)c(C)c3cc(O)ccc32)c2ccc(O)cc12
MCF7 [1]
  IC50: 4.16 µM

## COc1ccc(/C=C(/C(=O)N(C)CCCCn2c(-c3ccc(O)cc3)c(C)c3cc(O)ccc32)c2cc(OC)c(OC)c(OC)c2)cc1O
MCF7 [1]
  IC50: 1.99 µM

## CNCCCCCCCCCCCCn1c(-c2ccc(O)cc2)c(C)c2cc(O)ccc21
MCF7 [2]
  Activity: 7.5%
MCF7 [3]
  Activity: inactive
PBMC [4]
  Activity: Non-toxic
PBMC [5]
  Activity: Non-toxic
Estrogen receptor
  IC50: 380 nM
Estrogen receptor beta
  IC50: 1660 nM
MCF7 [1]
  IC50: 33 µM

## Cc1c(-c2ccc(O)cc2)n(Cc2ccc(O)cc2)c2ccc(O)cc12
MCF7 [1]
  IC50: 38.9 µM

## COc1ccc(/C=C(/C(=O)N(C)CCCCCn2c(-c3ccc(O)cc3)c(C)c3cc(O)ccc32)c2cc(OC)c(OC)c(OC)c2)cc1O
MCF7 [1]
  IC50: 2.93 µM

## Cc1c(-c2ccc(O)cc2)n(CCCCCCCCn2c(-c3ccc(O)cc3)c(C)c3cc(O)ccc32)c2ccc(O)cc12
MCF7 [1]
  IC50: 6.6 µM

## COc1ccc(/C=C(/C(=O)N(C)CCCCCCCCCCCCn2c(-c3ccc(O)cc3)c(C)c3cc(O)ccc32)c2cc(OC)c(OC)c(OC)c2)cc1O
MCF7 [2]
  Activity: 42.1%
MCF7 [3]
  Activity: inactive
PBMC [4]
  Activity: Non-toxic
PBMC [5]
  Activity: Non-toxic
Estrogen receptor
  IC50: 574 nM
Estrogen receptor beta
  IC50: 155 nM
MCF7 [1]
  IC50: 1.86 µM

## COc1ccc(/C=C(/C(=O)N(C)CCCCCCn2c(-c3ccc(O)cc3)c(C)c3cc(O)ccc32)c2cc(OC)c(OC)c(OC)c2)cc1O
MCF7 [1]
  IC50: 2.34 µM

## Cc1c(-c2ccc(O)cc2)n(CCCCCCCCCCCCn2c(-c3ccc(O)cc3)c(C)c3cc(O)ccc32)c2ccc(O)cc12
MCF7 [1]
  IC50: 5.24 µM

## COc1ccc(-c2c(C)c3cc(OC)ccc3n2CCCCN(C)C(=O)/C(=C/c2ccc(OC)c(O)c2)c2cc(OC)c(OC)c(OC)c2)cc1
MCF7 [1]
  IC50: 81.3 µM

## COc1ccc(/C=C(/C(=O)N(C)CCCCCCCCn2c(-c3ccc(O)cc3)c(C)c3cc(O)ccc32)c2cc(OC)c(OC)c(OC)c2)cc1O
MCF7 [1]
  IC50: 2.95 µM

## CCCCn1c(-c2ccc(O)cc2)c(C)c2cc(O)ccc21
MCF7 [1]
  IC50: 34 µM

## CNCCCCCCn1c(-c2ccc(O)cc2)c(C)c2cc(O)ccc21
MCF7 [1]
  IC50: 41.7 µM

## Cc1c(-c2ccc(O)cc2)n(CCCCn2c(-c3ccc(O)cc3)c(C)c3cc(O)ccc32)c2ccc(O)cc12
MCF7 [2]
  Activity: 54.7%
MCF7 [3]
  Activity: inactive
PBMC [4]
  Activity: 16.7%
PBMC [5]
  Activity: Non-toxic
Estrogen receptor
  IC50: 436 nM
Estrogen receptor beta
  IC50: 41 nM
MCF7 [1]
  IC50: 2.75 µM

## Cc1c(-c2ccc(O)cc2)n(CCO)c2ccc(O)cc12
MCF7 [1]
  IC50: 17.7 µM

## CNCCCCn1c(-c2ccc(O)cc2)c(C)c2cc(O)ccc21
MCF7 [1]
  IC50: 40.7 µM

## Cc1c(-c2ccc(O)cc2)n(CCCCCCn2c(-c3ccc(O)cc3)c(C)c3cc(O)ccc32)c2ccc(O)cc12
MCF7 [1]
  IC50: 8.16 µM

## Cc1c(-c2ccc(O)cc2)n(Cc2ccc(Cn3c(-c4ccc(O)cc4)c(C)c4cc(O)ccc43)cc2)c2ccc(O)cc12
MCF7 [1]
  IC50: 3.5 µM

## CNCCCCCn1c(-c2ccc(O)cc2)c(C)c2cc(O)ccc21
MCF7 [1]
  IC50: 49 µM

## Cc1c(-c2ccc(O)cc2)n(Cc2ccc(F)cc2)c2ccc(O)cc12
MCF7 [1]
  IC50: 41 µM

## COc1cc(Cn2c(-c3ccc(O)cc3)c(C)c3cc(O)ccc32)cc(OC)c1OC
MCF7 [1]
  IC50: 332 µM
